# Measured values: patent US11964996B2, “2-alkynylmannose derivative and application thereof” (priority 2020, dated 2024)
# Biological target: T1, FimH proteins (Escherichia coli, UniProt Q1R2J4)
# T1 construct: endogenous in cells; host or cells: UPEC strain UTI89 (whole bacteria)
# Assay: hemagglutination inhibition (HAI) assay: UPEC UTI89 with guinea pig red blood cells
# Format: cell-based, uropathogenic Escherichia coli (UPEC) UTI89
# Conditions: read-out: HAI EC90 (minimum concentration for inhibiting hemagglutination)
# Protocol: In the present example, the mannose derivatives A1 to A107 that were prepared in Examples 1 to 12 were analyzed in hemagglutination inhibition (HAI) assays to determine inhibitory effects of the compounds on the function/activity of FimH proteins.
# 1. Preparation of a guinea pig red blood cell solution: an adult guinea pig was anesthetized with ethyl ether, blood was sampled from the heart, placed in an EDTA blood collection tube, and centrifuged at 2,000 rpm for 5 min, serum was removed, the sample was transferred in a centrifuge tube (15 mL), sterilized PBS was added, the sample was centrifuged at 1,500 rpm for 10 min, a supernatant was removed, the sample was transferred in a centrifuge tube (50 mL), PBS was added, the sample was centrifuged at 1,500 rpm for 10 min and repeatedly washed twice, and red blood cells were slightly aspirated into a new centrifuge tube (50 mL) to obtain a 5% guinea pig red blood cell solution.
# 2. Preparation of a bacteria solution: a UPEC cell line UTI89 was inoculated on a medium plate and cultured in an incubator at 37° C. overnight. Single colonies were picked and inoculated in an LB medium in a sterilized conical flask, and cultured at 37° C. and 170 r/min overnight. When an OD value at 540 nm was about 0.8 on a microplate reader, the bacterial concentration was about 10^8-10^9 cfu/mL, the bacteria solution was centrifuged at 2,000 rpm for 10 min, a supernatant was removed, and 1 mL of bacteria solution was prepared into 0.1 mL of PBS bacteria solution. […] The bacteria and the medium were uniformly mixed by shaking, and reacted in an incubator at 25° C. for about 20-40 min. When the plate was read, the wells in which complete agglutination occurred were used as 4HAU for the hemagglutination titer of the bacteria. For example, if the endpoint titer of hemagglutination is 1:256, the dilution multiple of the 4HAU antigen is 1:64 (256 divided by 4). Bacteria solutions at corresponding concentrations were prepared according to the experimental results.
# 3. Activity assay: a compound to be tested or a standard product was placed in a 96-well microtest plate, 50 μL of drug at an initial concentration of 200 μM was placed in the first well, and from the second well, 25 μL of PBS was added to each well to dilute the drug in proportion. The drug and the medium in the first well were mixed, 25 μL of mixed drug solution was placed in the second well, the drug solution was diluted in sequence to the last well, and 25 μL of drug solution was removed. 25 μL of bacteria solution was placed in each well of the culture plate containing the diluted drug, and cultured at 37° C. for 40 min. 25 μL of 5% guinea pig red blood cell suspension was placed in each well, and slightly uniformly mixed with the drug, and the plate was placed at 4° C. for about 1 h. When results were determined, the plate was tilted 60°, and whether the red blood cells flowed like teardrops was observed.
# Mannosyl proteins are expressed on the surface of red blood cells in a guinea pig, which can bind to FimH proteins of UTI89 to cause hemagglutination. It can be observed with the naked eyes that the red blood cells form film-like agglutination at the bottom of the well, and loose red dots can be seen in the center. The FimH protein inhibitor competitively binds to FimH proteins to inhibit hemagglutination. It can be observed with the naked eyes that all the red blood cells sink and concentrate at the bottom of the well to form dense dots. The minimum concentration for inhibiting hemagglutination is expressed as an EC90 value of a compound. The final concentration of the compound in the first well is 66700 nM, the concentration in the second well is half that in the first well, the concentration in the third well is half that in the second well, and so on. […] A low EC90 value indicates high activity of a compound.
row,SMILES,EC90 [nM]
1,CNC(=O)c1cccc(-c2ccc(O[C@H]3O[C@H](CO)[C@@H](O)[C@H](O)[C@@]3(O)C#Cc3ccccc3)c(C)c2)c1 [Compound A1],8
2,CNC(=O)c1cccc(-c2ccc(O[C@H]3O[C@H](CO)[C@@H](O)[C@H](O)[C@@]3(O)C#CC3CC3)c(C)c2)c1 [Compound A2],16
3,CNC(=O)c1cccc(-c2ccc(O[C@H]3O[C@H](CO)[C@@H](O)[C@H](O)[C@@]3(O)C#Cc3cnn(C)c3)c(C)c2)c1 [Compound A3],16
4,Cc1cc(Br)ccc1O[C@H]1O[C@H](CO)[C@@H](O)[C@H](O)[C@@]1(O)C#Cc1ccccc1 [Compound A4],1040
5,Cc1ccccc1O[C@H]1O[C@H](CO)[C@@H](O)[C@H](O)[C@@]1(O)C#Cc1ccccc1 [Compound A5],520
6,CC(C)O[C@H]1O[C@H](CO)[C@@H](O)[C@H](O)[C@@]1(O)C#Cc1ccccc1 [Compound A6],1040
7,CCC(C)O[C@H]1O[C@H](CO)[C@@H](O)[C@H](O)[C@@]1(O)C#Cc1ccccc1 (stereo partly drawn) [Compound A7],260
8,CC(C)C(C)O[C@H]1O[C@H](CO)[C@@H](O)[C@H](O)[C@@]1(O)C#Cc1ccccc1 (stereo partly drawn) [Compound A8],260
9,CCC(CC)O[C@H]1O[C@H](CO)[C@@H](O)[C@H](O)[C@@]1(O)C#Cc1ccccc1 [Compound A9],130
10,OC[C@H]1O[C@H](C#Cc2cnn(-c3ccc(OC(F)(F)F)cc3)c2)[C@](O)(C#CC2CC2)[C@@H](O)[C@@H]1O [Compound A10],0.13
11,OC[C@H]1O[C@H](OC2CCCC2)[C@](O)(C#Cc2ccccc2)[C@@H](O)[C@@H]1O [Compound A11],520
12,OC[C@H]1O[C@H](OC2CCCCC2)[C@](O)(C#Cc2ccccc2)[C@@H](O)[C@@H]1O [Compound A12],260
13,OC[C@H]1O[C@H](OC2CCC(F)(F)CC2)[C@](O)(C#Cc2ccccc2)[C@@H](O)[C@@H]1O [Compound A13],1040
14,C#C[C@H]1O[C@H](CO)[C@@H](O)[C@H](O)[C@@]1(O)C#Cc1ccccc1 [Compound A14],4160
15,CC#C[C@H]1O[C@H](CO)[C@@H](O)[C@H](O)[C@@]1(O)C#Cc1ccccc1 [Compound A15],520
16,OC[C@H]1O[C@H](C#CC2CC2)[C@](O)(C#Cc2ccccc2)[C@@H](O)[C@@H]1O [Compound A16],130
17,OC[C@H]1O[C@H](C#Cc2ccccc2)[C@](O)(C#Cc2ccccc2)[C@@H](O)[C@@H]1O [Compound A17],130
18,Cc1cccc(C#C[C@@]2(O)[C@@H](C#Cc3ccccc3)O[C@H](CO)[C@@H](O)[C@@H]2O)c1 [Compound A18],260
19,CC(C)c1cccc(C#C[C@@]2(O)[C@@H](C#Cc3ccccc3)O[C@H](CO)[C@@H](O)[C@@H]2O)c1 [Compound A19],520
20,OC[C@H]1O[C@H](C#Cc2ccccc2)[C@](O)(C#Cc2cccc(C3CC3)c2)[C@@H](O)[C@@H]1O [Compound A20],260
21,CC(C)Oc1cccc(C#C[C@@]2(O)[C@@H](C#Cc3ccccc3)O[C@H](CO)[C@@H](O)[C@@H]2O)c1 [Compound A21],260
22,CS(=O)(=O)c1cccc(C#C[C@@]2(O)[C@@H](C#Cc3ccccc3)O[C@H](CO)[C@@H](O)[C@@H]2O)c1 [Compound A22],130
23,CC(C)n1cc(C#C[C@@]2(O)[C@@H](C#Cc3ccccc3)O[C@H](CO)[C@@H](O)[C@@H]2O)ccc1=O [Compound A23],260
24,OC[C@H]1O[C@H](C#Cc2ccccc2)[C@](O)(C#Cc2cccc3ccccc23)[C@@H](O)[C@@H]1O [Compound A24],260
25,Cc1cccc(C#C[C@H]2O[C@H](CO)[C@@H](O)[C@H](O)[C@@]2(O)C#Cc2ccccc2)c1 [Compound A25],260
26,CC(C)c1cccc(C#C[C@H]2O[C@H](CO)[C@@H](O)[C@H](O)[C@@]2(O)C#Cc2ccccc2)c1 [Compound A26],130

row,SMILES,EC90 [nM]
1,CC(C)Oc1cccc(C#C[C@H]2O[C@H](CO)[C@@H](O)[C@H](O)[C@@]2(O)C#Cc2ccccc2)c1 [Compound A27],130
2,OC[C@H]1O[C@H](C#Cc2cccc(C(F)(F)F)c2)[C@](O)(C#Cc2ccccc2)[C@@H](O)[C@@H]1O [Compound A28],260
3,OC[C@H]1O[C@H](C#Cc2cccc3ccccc23)[C@](O)(C#Cc2ccccc2)[C@@H](O)[C@@H]1O [Compound A29],520
4,OC[C@H]1O[C@H](C#Cc2ccc3ccccc3c2)[C@](O)(C#Cc2ccccc2)[C@@H](O)[C@@H]1O [Compound A30],1040
5,OC[C@H]1O[C@H](C#Cc2cnn(-c3ccc(OCC4CC4)cc3)c2)[C@](O)(C#CC2CC2)[C@@H](O)[C@@H]1O [Compound A31],< 0.1
6,OC[C@H]1O[C@H](C#Cc2cccc(-c3ccccc3)c2)[C@](O)(C#Cc2ccccc2)[C@@H](O)[C@@H]1O [Compound A32],130
7,CC(C)n1cc(C#C[C@H]2O[C@H](CO)[C@@H](O)[C@H](O)[C@@]2(O)C#Cc2ccccc2)ccc1=O [Compound A33],8
8,Cn1cc(C#C[C@H]2O[C@H](CO)[C@@H](O)[C@H](O)[C@@]2(O)C#Cc2ccccc2)cn1 [Compound A34],64
9,Cn1ncc(C#C[C@H]2O[C@H](CO)[C@@H](O)[C@H](O)[C@@]2(O)C#Cc2ccccc2)c1Cl [Compound A35],520
10,Cc1c(C#C[C@H]2O[C@H](CO)[C@@H](O)[C@H](O)[C@@]2(O)C#Cc2ccccc2)cnn1C [Compound A36],260
11,Cc1nn(C)cc1C#C[C@H]1O[C@H](CO)[C@@H](O)[C@H](O)[C@@]1(O)C#Cc1ccccc1 [Compound A38],260
12,CC(C)n1cc(C#C[C@H]2O[C@H](CO)[C@@H](O)[C@H](O)[C@@]2(O)C#Cc2ccccc2)cn1 [Compound A39],8
13,CCn1cc(C#C[C@H]2O[C@H](CO)[C@@H](O)[C@H](O)[C@@]2(O)C#Cc2ccccc2)cn1 [Compound A40],32
14,CCC(C)n1cc(C#C[C@H]2O[C@H](CO)[C@@H](O)[C@H](O)[C@@]2(O)C#Cc2ccccc2)cn1 (stereo partly drawn) [Compound A41],8
15,OC[C@H]1O[C@H](C#Cc2cnn(CC3CC3)c2)[C@](O)(C#Cc2ccccc2)[C@@H](O)[C@@H]1O [Compound A42],4
16,OC[C@H]1O[C@H](C#Cc2cnn(Cc3ccccc3)c2)[C@](O)(C#Cc2ccccc2)[C@@H](O)[C@@H]1O [Compound A43],32
17,OC[C@H]1O[C@H](C#Cc2cnn(C3CCC3)c2)[C@](O)(C#Cc2ccccc2)[C@@H](O)[C@@H]1O [Compound A44],8
18,OC[C@H]1O[C@H](C#Cc2cnn(C3CCCC3)c2)[C@](O)(C#Cc2ccccc2)[C@@H](O)[C@@H]1O [Compound A45],1
19,OC[C@H]1O[C@H](C#Cc2cnn(C3CCCCC3)c2)[C@](O)(C#Cc2ccccc2)[C@@H](O)[C@@H]1O [Compound A46],0.5
20,OC[C@H]1O[C@H](C#Cc2cnn(-c3ccccc3)c2)[C@](O)(C#Cc2ccccc2)[C@@H](O)[C@@H]1O [Compound A47],0.25
21,OC[C@H]1O[C@H](C#Cc2cnn(-c3ccccc3Cl)c2)[C@](O)(C#Cc2ccccc2)[C@@H](O)[C@@H]1O [Compound A48],1
22,OC[C@H]1O[C@H](C#Cc2cnn([C@H]3CCOC3)c2)[C@](O)(C#Cc2ccccc2)[C@@H](O)[C@@H]1O [Compound A49],16
23,OC[C@H]1O[C@H](C#Cc2cnn([C@@H]3CCOC3)c2)[C@](O)(C#Cc2ccccc2)[C@@H](O)[C@@H]1O [Compound A50],130
24,OC[C@H]1O[C@H](C#Cc2cnn(C3CCCOC3)c2)[C@](O)(C#Cc2ccccc2)[C@@H](O)[C@@H]1O (stereo partly drawn) [Compound A51],16
25,OC[C@H]1O[C@H](C#Cc2cnn(C3CCOCC3)c2)[C@](O)(C#Cc2ccccc2)[C@@H](O)[C@@H]1O [Compound A52],4
